In data set [1] the target is T1, cathepsin G (Homo sapiens, UniProt P08311).
T1 sequence (P08311 21-255): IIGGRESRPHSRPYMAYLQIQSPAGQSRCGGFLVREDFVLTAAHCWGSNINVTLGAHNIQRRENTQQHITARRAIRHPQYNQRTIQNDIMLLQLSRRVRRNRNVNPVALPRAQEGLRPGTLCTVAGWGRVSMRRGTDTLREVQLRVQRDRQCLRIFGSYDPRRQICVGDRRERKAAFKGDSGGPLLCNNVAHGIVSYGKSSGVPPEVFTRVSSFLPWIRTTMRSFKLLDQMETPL
The experiment in a line: Cleavage of peptides by purified cathepsin G, MALDI-TOF/TOF. As to conditions: 25 nM protease, 10 µM peptide, 37 °C, 2, 5, 10 and 30 min. From the text: (§1) Trypsin-like proteases included in the experiments are trypsin-1, -2 and -3, tryptase (Enzo LifeSciences), thrombin (Sigma-Aldrich) and cathepsin G (Sigma-Aldrich). Trypsin-1, -2 and -3 were produced as described by Koistinen et al. and Wu et al.. Two elastase-like enzymes, neutrophil elastase (Enzo LifeSciences, Farmingdale, NY, USA) and pancreatic elastase I (Sigma-Aldrich) were included as well. All enzymes were from human origin except for pancreatic elastase from porcine pancreas.
(§2) Reaction mixtures with purified enzymes were compiled in an identical way. […] Substance P was added as the standard peptide except for the reaction mixtures with substance P or bradykinin as the peptide of interest, where angiotensin II (Bachem) was added.
(§3) The TFA mixtures were thawed on ice and desalted using C18 zip-tips (Merck Millipore®, Burlington, MA, USA) with a capacity of 5 µg protein. Retained peptide fragments were eluted directly on the MALDI target plate. Next, 0.5 µL of a 2.5 mg/mL α-cyano-4-hydroxycinnamic acid (Sigma-Aldrich) matrix solution (in 70% acetonitrile, 0.1% TFA) was spotted on top of the sample. A 6-Peptide mixture Kit (AB Sciex, Framingham, MA, USA) containing bradykinin (2–9), angiotensin I, glu1-fibrinopeptide, ACTH (1–17), ACTH (18–39) and ACTH (7–38) was diluted with matrix and spotted on the plate as well.
(§4) MS and MS/MS data for peptide fragment identification were obtained with a MALDI-TOF/TOF instrument (4800 MALDI TOF/TOF™, Applied Biosystems, Waltham, MA, USA) and instrument parameters were set using 4000 Series Explorer™ software. MS spectra were recorded in positive reflector mode in a mass range from 500 to 4000 Da and laser intensity of 4500–4800 Hz. The spectra were calibrated using the calibration mixture mentioned above to a mass tolerance of 0.1 Da. MS/MS spectra were recorded with high-energy collision-induced dissociation and the laser intensity was increased by 10%.
(§5) Identified fragments were confirmed using the MS/MS spectra and mMass 5.5.0 by Martin Strohalm. The relative intensities of the fragments were calculated as the ratio of the intensity of the peak of interest to the intensity of the peak of the standard peptide.

In data set [2] the target is trypsin-2 (Homo sapiens, UniProt P07478). The experiment in a line: Cleavage of peptides by purified trypsin-2, MALDI-TOF/TOF. The note with it: 25 nM protease, 10 µM peptide; for Incubation time at which the first cleavage or decrease of the full-length peptide was observed, trypsin-2: 37 °C, time points 2, 5, 10, 30 min.
From the text: as §1
(§6) Reaction mixtures with purified enzymes were compiled in an identical way. Each mixture contained an equimolar concentration of protease (25 nM based on) and 10 µM peptide of interest and was incubated for 2, 5, 10 and 30 min at 37 °C. Substance P was added as the standard peptide except for the reaction mixtures with substance P or bradykinin as the peptide of interest, where angiotensin II (Bachem) was added.
as §3
as §4, with “10%. Precursor mass m/z 1570.65 (Glu1-Fibrinopeptide from the calibration mixture) was used to calibrate the MS/MS spectra to a mass tolerance of 0.1 Da.” for “10%.”
(§7) MS and MS/MS spectra were processed using DataExplorer™ software and the obtained output files were uploaded in the MS-PEP data analyzer (https://bioit.shinyapps.io/PARs/ accessed 10/08/2020) for peptide fragment identification. Identified fragments were confirmed using the MS/MS spectra and mMass 5.5.0 by Martin Strohalm. The relative intensities of the fragments were calculated as the ratio of the intensity of the peak of interest to the intensity of the peak of the standard peptide.

Data set [3] has as its target T2, trypsin-3 (Homo sapiens, UniProt P35030).
T2 sequence (P35030 1-304): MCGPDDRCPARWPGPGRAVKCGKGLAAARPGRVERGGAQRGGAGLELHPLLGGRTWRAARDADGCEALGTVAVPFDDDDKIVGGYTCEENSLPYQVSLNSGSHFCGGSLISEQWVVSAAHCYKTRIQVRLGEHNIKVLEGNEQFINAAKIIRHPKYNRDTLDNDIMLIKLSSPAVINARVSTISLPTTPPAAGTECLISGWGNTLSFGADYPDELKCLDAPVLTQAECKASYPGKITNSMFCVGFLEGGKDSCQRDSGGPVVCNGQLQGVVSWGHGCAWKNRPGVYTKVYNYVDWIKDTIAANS
The experiment in a line: Cleavage of peptides by purified trypsin-3, MALDI-TOF/TOF. The note with it: 25 nM protease, 10 µM peptide.
From the text: as §1, §6, §3
as §4, with “10%. Precursor mass m/z 1570.65 (Glu1-Fibrinopeptide from the calibration mixture) was used to calibrate the MS/MS spectra to a mass tolerance of 0.1 Da.” for “10%.”
as §7

Data set [4] addresses tryptase (Homo sapiens, UniProt Q15661). Briefly: Cleavage of peptides by purified tryptase, MALDI-TOF/TOF. The note with it: 25 nM protease, 10 µM peptide.
From the text: as §1, §6, §3
as §4, with “10%. Precursor mass m/z 1570.65 (Glu1-Fibrinopeptide from the calibration mixture) was used to calibrate the MS/MS spectra to a mass tolerance of 0.1 Da.” for “10%.”
as §7

Data set [5] concerns the target trypsin-1 (Homo sapiens, UniProt P07477). Briefly: Cleavage of peptides by purified trypsin-1, MALDI-TOF/TOF. The note with it: 25 nM protease, 10 µM peptide; for Incubation time at which the first cleavage or decrease of the full-length peptide was observed, trypsin-1: 37 °C, time points 2, 5, 10, 30 min.
From the text: as §1, §6, §3
as §4, with “10%. Precursor mass m/z 1570.65 (Glu1-Fibrinopeptide from the calibration mixture) was used to calibrate the MS/MS spectra to a mass tolerance of 0.1 Da.” for “10%.”
as §7

The target of data set [6] is thrombin (Homo sapiens, UniProt P00734). The experiment in a line: Cleavage of peptides by purified thrombin, MALDI-TOF/TOF. The note with it: 25 nM protease, 10 µM peptide; for Incubation time at which the first cleavage or decrease of the full-length peptide was observed, thrombin: 37 °C, time points 2, 5, 10, 30 min.
From the text: as §1, §6, §3
as §4, with “10%. Precursor mass m/z 1570.65 (Glu1-Fibrinopeptide from the calibration mixture) was used to calibrate the MS/MS spectra to a mass tolerance of 0.1 Da.” for “10%.”
as §7

Data set [7] deals with pancreatic elastase I (Sus scrofa, UniProt P00772). Briefly: Cleavage of peptides by purified pancreatic elastase, MALDI-TOF/TOF. The note with it: 25 nM protease, 10 µM peptide.
From the text: as §1, §2, §3, §4, §5

Data set [8] has as its target T3, neutrophil elastase (Homo sapiens, UniProt P08246).
T3 sequence (P08246 30-267): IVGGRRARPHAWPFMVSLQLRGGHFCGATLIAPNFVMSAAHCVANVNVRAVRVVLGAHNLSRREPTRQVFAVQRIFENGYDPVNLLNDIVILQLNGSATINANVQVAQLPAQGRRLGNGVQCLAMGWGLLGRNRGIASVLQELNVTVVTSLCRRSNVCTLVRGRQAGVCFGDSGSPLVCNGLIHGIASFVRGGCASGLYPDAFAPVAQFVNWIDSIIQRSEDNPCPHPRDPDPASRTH
Briefly: Cleavage of peptides by purified neutrophil elastase, MALDI-TOF/TOF. The note with it: 25 nM protease, 10 µM peptide.
From the text: as §1, §2, §3, §4, §5

Where [9] appears, read: 37 °C, 2, 5, 10 and 30 min, stopped with 2% TFA.
Where [10] appears, read: 37 °C, time points 2, 5, 10, 30 min.
[11] abbreviates: PAR-based peptides, 37 °C, 2, 5, 10 and 30 min.

Data on two compounds can be found in PMC8509398, “Proteolytic Cleavage of Bioactive Peptides and Protease-Activated Receptors in Acute and Post-Colitis” (International Journal of Molecular Sciences, 2021).

Residues, ends and D or L forms follow the SMILES beside them. A value given as a limit tells only on which side of the number the result lay.

Chain of trypsin-2 (P07478 24-247): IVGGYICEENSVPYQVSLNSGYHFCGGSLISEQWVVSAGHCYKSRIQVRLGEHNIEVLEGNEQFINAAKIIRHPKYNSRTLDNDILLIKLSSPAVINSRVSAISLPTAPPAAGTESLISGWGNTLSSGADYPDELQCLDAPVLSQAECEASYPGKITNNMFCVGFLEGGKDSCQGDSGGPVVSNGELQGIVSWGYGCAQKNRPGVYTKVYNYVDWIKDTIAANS
Chain of pancreatic elastase I (P00772 27-266): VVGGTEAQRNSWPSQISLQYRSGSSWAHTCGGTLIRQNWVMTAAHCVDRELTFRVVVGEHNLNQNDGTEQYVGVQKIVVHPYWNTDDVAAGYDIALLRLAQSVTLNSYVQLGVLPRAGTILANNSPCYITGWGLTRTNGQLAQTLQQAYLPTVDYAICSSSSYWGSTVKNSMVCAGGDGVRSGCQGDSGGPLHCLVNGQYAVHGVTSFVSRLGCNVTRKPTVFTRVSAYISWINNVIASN
Chain of tryptase (Q15661 31-275): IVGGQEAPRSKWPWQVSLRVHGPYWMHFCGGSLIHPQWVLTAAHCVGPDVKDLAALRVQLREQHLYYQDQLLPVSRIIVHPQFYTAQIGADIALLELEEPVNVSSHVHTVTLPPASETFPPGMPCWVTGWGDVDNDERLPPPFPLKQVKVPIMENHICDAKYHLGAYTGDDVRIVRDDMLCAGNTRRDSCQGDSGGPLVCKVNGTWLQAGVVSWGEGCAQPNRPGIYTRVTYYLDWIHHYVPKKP

Take `CC[C@H](C)[C@H](NC(=O)[C@H](CO)NC(=O)[C@H](CC(N)=O)NC(=O)[C@H](CC(C)C)NC(=O)[C@H](Cc1ccc(O)cc1)NC(=O)[C@H](CCCCN)NC(=O)[C@H](CCCCN)NC(=O)[C@@H](NC(=O)[C@H](C)NC(=O)[C@H](CCSC)NC(=O)[C@H](CCC(N)=O)NC(=O)[C@H](CCCCN)NC(=O)[C@H](CCCN=C(N)N)NC(=O)[C@H](CC(C)C)NC(=O)[C@H](CCCN=C(N)N)NC(=O)[C@@H](NC(=O)[C@H](Cc1ccc(O)cc1)NC(=O)[C@H](CC(N)=O)NC(=O)[C@H](CC(=O)O)NC(=O)[C@@H](NC(=O)[C@H](Cc1ccccc1)NC(=O)[C@@H](NC(=O)[C@H](C)NC(=O)[C@H](CC(=O)O)NC(=O)[C@H](CO)NC(=O)[C@@H](N)Cc1c[nH]cn1)C(C)C)[C@@H](C)O)[C@@H](C)O)C(C)C)C(=O)N[C@@H](CC(C)C)C(=O)N[C@@H](CC(N)=O)C(N)=O` [VIP, Vasoactive intestinal peptide]: the “Efficiency of the first cleavage in the peptide, Cathepsin G” value in data set [1] (stopped with 2% TFA) was “+++ (ultrafast processing within 2 min)”. For the same compound, the “Efficiency of the first cleavage in the peptide, Trypsin-2” value in data set [2] (setting [9]) is “+++ (ultrafast processing within 2 min)”. Besides, in data set [2], the “Incubation time at which the first cleavage or decrease of the full-length peptide was observed, trypsin-2” value is 2 min. Also, the “Efficiency of the first cleavage in the peptide, Trypsin-3” value in data set [3] (setting [9]) was “+++ (ultrafast processing within 2 min)”. In addition, in data set [3] (setting [10]), the “Incubation time at which the first cleavage or decrease of the full-length peptide was observed, trypsin-3” value is given as 2 min. For the same compound, the “Efficiency of the first cleavage in the peptide, Tryptase” value in data set [4] (setting [9]) was “+++ (ultrafast processing within 2 min)”. Moreover, the “Incubation time at which the first cleavage or decrease of the full-length peptide was observed, tryptase” value in data set [4] (setting [10]) came to 2 min. Also, the “Efficiency of the first cleavage in the peptide, Trypsin-1” value in data set [5] (setting [9]) was “+++ (ultrafast processing within 2 min)”. Besides, the “Incubation time at which the first cleavage or decrease of the full-length peptide was observed, trypsin-1” value in data set [5] is on record as 2 min. Besides, the “Efficiency of the first cleavage in the peptide, Thrombin” value in data set [6] (setting [9]) is given as “−”. The “Incubation time at which the first cleavage or decrease of the full-length peptide was observed, thrombin” value in data set [6] is given as more than 30 min. Further, in data set [7] (setting [9]), the “Efficiency of the first cleavage in the peptide, Pancreatic Elastase” value is reported as “+++ (ultrafast processing within 2 min)”. Besides, the “Incubation time at which the first cleavage or decrease of the full-length peptide was observed, pancreatic elastase” value in data set [7] (setting [10]) stood at 2 min. Besides, the “Efficiency of the first cleavage in the peptide, Neutrophil Elastase” value in data set [8] (setting [9]) is “+++ (ultrafast processing within 2 min)”. The “Incubation time at which the first cleavage or decrease of the full-length peptide was observed, neutrophil elastase” value in data set [8] (setting [10]) came out at 2 min.
As for `CC[C@H](C)[C@H](NC(=O)[C@@H]1CCCN1C(=O)[C@H](CC(C)C)NC(=O)[C@@H](NC(=O)[C@@H]1CCCN1C(=O)[C@H](CCCCN)NC(=O)[C@H](C)NC(=O)[C@H](CC(C)C)NC(=O)[C@H](CC(N)=O)NC(=O)[C@H](CC(N)=O)NC(=O)[C@@H](NC(=O)[C@H](CC(=O)O)NC(=O)[C@H](CC(N)=O)NC(=O)[C@H](CCC(=O)O)NC(=O)[C@H](CCSC)NC(=O)CN)[C@@H](C)O)[C@@H](C)O)C(=O)N[C@@H](CCCCN)C(=O)N[C@H](C(=O)N[C@@H](Cc1ccccc1)C(=O)N[C@@H](CCCNC(=N)N)C(=O)NCC(=O)N[C@@H](C)C(=O)N1CCC[C@H]1C(=O)N1CCC[C@H]1C(=O)N[C@@H](CC(N)=O)C(=O)N[C@@H](CO)C(=O)N[C@@H](Cc1ccccc1)C(=O)N[C@@H](CCC(=O)O)C(N)=O)[C@@H](C)O` [PAR3-based] (H-GMENDTNNLAKPTLPIKTFRGAPPNSFE-NH2), in data set [1] (PAR-based peptides), the “TL disarming (D), Cathepsin G” value is on record as “+++ (ultrafast processing within 2 min)” and the “TL unmasking (U), Cathepsin G” value is recorded as “−”. In addition, the “Incubation time at which the first cleavage or decrease of the full-length peptide was observed, trypsin-2” value in data set [2] is on record as 2 min. Moreover, in data set [2] (setting [11]), the “TL disarming (D), Trypsin-2” value is “++ (fast processing after 5 min)” and the “TL unmasking (U), Trypsin-2” value was “+++ (ultrafast processing within 2 min)”. In data set [3] (setting [11]), the “TL disarming (D), Trypsin-3” value was “+ (processing after 10 or 30 min)” and the “TL unmasking (U), Trypsin-3” value is given as “−”. In data set [4] (setting [11]), the “TL disarming (D), Tryptase” value was “+++ (ultrafast processing within 2 min)” and the “TL unmasking (U), Tryptase” value is on record as “−”. The “Incubation time at which the first cleavage or decrease of the full-length peptide was observed, trypsin-1” value in data set [5] was 2 min. In addition, in data set [5] (setting [11]), the “TL disarming (D), Trypsin-1” value is “+++ (ultrafast processing within 2 min)” and the “TL unmasking (U), Trypsin-1” value is “+++ (ultrafast processing within 2 min)”. Besides, the “Incubation time at which the first cleavage or decrease of the full-length peptide was observed, thrombin” value in data set [6] is 2 min. Besides, in data set [6] (setting [11]), the “TL disarming (D), Thrombin” value was “−” and the “TL unmasking (U), Thrombin” value is on record as “+++ (ultrafast processing within 2 min)”. Also, in data set [7] (setting [11]), the “TL disarming (D), Pancreatic Elastase” value is recorded as “+++ (ultrafast processing within 2 min)” and the “TL unmasking (U), Pancreatic Elastase” value was “−”. Also, in data set [8] (setting [11]), the “TL disarming (D), Neutrophil Elastase” value is “+++ (ultrafast processing within 2 min)” and the “TL unmasking (U), Neutrophil Elastase” value is “−”.
